The first assay can be described thus: Displacement of [125I]MCH from MCHR1 expressed in CHO cell membranes assessed as inhibition constant. Also noted: species or system Cricetulus griseus, Membrane.
Details: not given; call rule not given here
Consider `O=C(c1ccc(-c2ccccc2)cc1)N1CCCC12CCCN(Cc1ccc3ccccc3c1)C2` (configuration not stated), for which the Ki result is on record as “Not Active”.

The same assay, now with this note: read-out: Ki.
Take `COc1cc(OC)cc(C(=O)N[C@@H]2CCN(C/C=C/c3ccccc3)C2)c1`: the inhibition constant Ki came out at 17 nM. The same measure, in the same setting: next, `COc1cc(OC)cc(C(=O)N[C@@H]2CCN(Cc3ccc4ccccc4c3)C2)c1`: 7 nM; `O=C(N[C@@H]1CCN(Cc2ccc3ccccc3c2)C1)c1ccc(F)c(Cl)c1`: 136 nM; `O=C(/C=C/c1ccc(F)cc1)N[C@@H]1CCN(Cc2ccc3ccccc3c2)C1`: 936 nM. As for `O=C(N[C@@H]1CCN(Cc2ccc3ccccc3c2)C1)c1ccc(F)c(F)c1`, the inhibition constant (Ki) was found to be 208 nM. In the case of `O=C(c1ccc(F)c(Cl)c1)N1CCC2(CCCN(Cc3ccc4c(c3)OCO4)C2)C1` (configuration not stated), the Ki is 2500 nM. Same read-out and setting: next, `O=C(COc1ccc(Cl)cc1)N1CCC2(CCCN(Cc3ccc4c(c3)OCO4)C2)C1` (configuration not stated): 2560 nM; `Cc1ccc2c(C)c(C(=O)N[C@@H]3CCN(Cc4ccc5ccccc5c4)C3)oc2c1`: 2640 nM. With `COc1cc(OC)cc(C(=O)N[C@@H]2CCN(Cc3ccc4c(c3)OCO4)C2)c1`, the Ki came out at 61.8 nM. For `O=C(N[C@@H]1CCN(Cc2ccc3ccccc3c2)C1)c1ccc(Br)cc1`, the Ki was 103 nM. The same measure, in the same setting: next, `O=C(N[C@@H]1CCN(Cc2ccc3ccccc3c2)C1)c1ccc(-c2ccc(C(F)(F)F)cc2)s1`: 3080 nM; `O=C(N[C@@H]1CCN(Cc2ccc3ccccc3c2)C1)c1ccccc1`: 448 nM; `O=C(COc1ccc(Cl)cc1)N[C@@H]1CCN(Cc2ccc3ccccc3c2)C1`: 271 nM.

For the compound `COc1cc(NC(=O)CC2CCCN(Cc3ccc4ccccc4c3)C2)cc(OC)c1` (configuration not stated), the Ki is 1690 nM. As to `COc1cccc(-c2ccc(C(=O)N[C@@H]3CCN(Cc4ccc5ccccc5c4)C3)cc2)c1`, the inhibition constant (Ki) came out at 4190 nM. The same measure, in the same setting: under `COc1cc(OC)cc(C(=O)N2CCC3(CCCN(Cc4ccc5ccccc5c4)C3)C2)c1` (configuration not stated) stands 330 nM; under `O=C(N[C@@H]1CCN(Cc2ccc3ccccc3c2)C1)c1ccc(-c2ccc(F)cc2)cc1`, 1840 nM. On to `O=C(COc1ccc(Cl)cc1)N1CCCC12CCCN(Cc1ccc3ccccc3c1)C2` (configuration not stated), for which the Ki was found to be 2610 nM.

As for `O=C(c1ccc(F)c(F)c1)N1CCC2(CCCN(Cc3ccc4ccccc4c3)C2)C1` (configuration not stated), the Ki stood at 1900 nM. On the same count and under the same terms, under `COc1cc(OC)cc(C(=O)NC[C@H]2CCN(Cc3ccc4ccccc4c3)C2)c1` stands 105 nM; under `O=C(N[C@@H]1CCN(Cc2ccc3ccccc3c2)C1)c1ccc(Br)s1`, 202 nM.

Usually Ki stands for the equilibrium dissociation constant of an inhibitor or competing ligand from its target.
